US10702513B2, “Methods of treating pain and inducing analgesia” (NEW YORK UNIVERSITY, priority 2012, dated 2020)
“Also recorded” adds a separate entry of the source. Where two headings read alike, the source gives them in different places.

Legend:
[1] = target: GluA2-lacking AMPA receptors (Homo sapiens, UniProt P42261); details: cited from earlier work; for potentiation of CPARs and calcium impermeable AMPA receptors: literature (Sekiguchi 2002; Quirk 2002)
[2] = tested on: SNI-treated rats; experiment: Sucrose preference test (depression-like behavior) after intra-NAc administration, SNI model; type: in vivo, rat
Text: After SNI, rats develop sensory hypersensitivity, as measured by increased withdrawal response to von Frey filaments (mechanical allodynia) and acetone (cold allodynia) (FIG. 5) (Wang, et al. Anesthesiology 2011; 115: 812-821). The sucrose preference test (SPT) and forced swim test (FST) are used to assess depression. Preference for sucrose over water is a normal hedonic response in rats, whereas a decreased sucrose preference on the SPT represents anhedonia, a typical feature of depression. […] Sham-operated rats only develop depression-like behavior in the immediate postoperative period (FIG. 6C), due to acute incisional pain. These experiments were repeated in the PI model, and sensory and depressive symptoms both develop within 24 hours after paw incision and resolve 7 days later (FIG. 7). Thus, in animal models both acute and chronic postoperative pain cause depressive behavior.
(§1) To block CPARs locally in the NAc, microcannulas were stereotactically implanted bilaterally into the NAc, a technique well established (Carr, et al., Neuroscience 2010; 165: 1074-86). The NAc has anatomically distinct core and shell regions, both of which are involved in mood regulation. […] Sensory hypersensitivity was measured using von Frey filaments (Wang, et al. Anesthesiology 2011; 115: 812-821), whereas locomotion tests were performed using standard protocols (Carr, et al., Pschopharmacology (Berl) 2009; 201: 495-506).

[3] = tested on: SNI-treated rats; experiment: Mechanical hypersensitivity / allodynia (von Frey filaments), SNI model; type: in vivo, rat; details: for sensory hypersensitivity: administered directly into the NAc; for mechanical allodynia: 30 minutes after drug
Description: as §1
(§2) The Spared Nerve Injury (SNI) surgery was previously described in detail (Wang et al. Anesthesiology 2011, 115: 812-821). Briefly, under Isoflurane anesthesia (1.5 to 2%), the skin on the lateral surface of the right thigh of rat was incised and a section made through the biceps femoris muscle to expose three branches of the sciatic nerve: sural, common peroneal and tibial nerves. The common peroneal and tibial nerves were tied with non-absorbent 5.0 silk sutures at the point of trifurcation. The nerves were then cut distal to the knot, and about 3 to 5 mm of the distal ends were removed. Muscle layer was then sutured close, while skin was stapled. Staples were removed prior to behavioral testing.
A traditional Dixon up-down method with von Frey filaments was used to measure mechanical allodynia (Wang et al. Anesthesiology 2011, 115: 812-821). In brief, rats were individually placed into plexiglass chambers over a mesh table and acclimated for 20 min before the onset of examination. Beginning with 2.55 g, von Frey filaments in a set with logarithmically incremental stiffness (0.45, 0.75, 1.20, 2.55, 4.40, 6.10, 10.50, 15.10 g) were applied to the lateral ⅓ of right paws (in the distribution of the sural nerve) of animals at least 14 days after SNI surgery, and observers were blinded to the test conditions (CX546 vs. DMSO treatments).

[4] = tested on: SNI-treated rats; experiment: Forced swim test, SNI model; type: in vivo, rat; details: 10 mg/kg intraperitoneal, vs DMSO
Text: as §2
On the first session of the test, each animal was placed for fifteen minutes into a standard clear Porsolt chamber with water at 25° C. filled to 25 cm. Afterwards, the animal was taken out of the chamber, dried and put back in its home cage. 24 hours later, the animal was placed into the Porsolt chamber again under the same conditions for 5 min. Both sessions were videotaped, but only the second session was analyzed. Immobility was defined as a lack of movement of the hind paws lasting greater than 1 second. Two independent observers, examined and graded the total time of immobility for each rat, and the average grade was presented for each animal. FST was conducted 14 days after surgeries. […]

[5] = tested on: SNI-treated rats; experiment: Cold hypersensitivity / allodynia (acetone), SNI model; type: in vivo, rat
Text: as §2, with “Briefly,” for “The Spared Nerve Injury (SNI) surgery was previously described in detail (Wang et al. Anesthesiology 2011, 115: 812-821). Briefly,”
Animals were individually placed into plexiglass chambers as above and acclimated for 20 min. A drop of acetone was applied to the lateral plantar surface of the paws (in the distribution of the sural nerve). […] 0: no visible response or startle response lasting <0.5 second; 1: paw withdrawal lasting <5 seconds; 2: withdrawal lasting 5 to 10 seconds, +/− licking of the paws; 3: prolonged repetitive withdrawal lasting >10 s. Acetone was applied 5 times to each paw, and an average score was calculated.

[6] = cited from earlier work; for antidepressant effects: literature (Sekiguchi 2002; Quirk 2002); for antidepressant effect on pain-induced depression: SNI model, Wang et al. 2011
[7] = tested on: GluA1; details: Li et al. 2010; cited from earlier work
[8] = tested on: SNI-treated rats; details: Wang et al. 2011; cited from earlier work
[9] = administered directly into the NAc, SNI-treated rats, vs saline
[10] = 10 mg/kg intraperitoneal, SNI rats, vs DMSO
[11] = injected into NAc core, SNI-treated rats

Sequence of GluA2-lacking AMPA receptors (P42261 19-906): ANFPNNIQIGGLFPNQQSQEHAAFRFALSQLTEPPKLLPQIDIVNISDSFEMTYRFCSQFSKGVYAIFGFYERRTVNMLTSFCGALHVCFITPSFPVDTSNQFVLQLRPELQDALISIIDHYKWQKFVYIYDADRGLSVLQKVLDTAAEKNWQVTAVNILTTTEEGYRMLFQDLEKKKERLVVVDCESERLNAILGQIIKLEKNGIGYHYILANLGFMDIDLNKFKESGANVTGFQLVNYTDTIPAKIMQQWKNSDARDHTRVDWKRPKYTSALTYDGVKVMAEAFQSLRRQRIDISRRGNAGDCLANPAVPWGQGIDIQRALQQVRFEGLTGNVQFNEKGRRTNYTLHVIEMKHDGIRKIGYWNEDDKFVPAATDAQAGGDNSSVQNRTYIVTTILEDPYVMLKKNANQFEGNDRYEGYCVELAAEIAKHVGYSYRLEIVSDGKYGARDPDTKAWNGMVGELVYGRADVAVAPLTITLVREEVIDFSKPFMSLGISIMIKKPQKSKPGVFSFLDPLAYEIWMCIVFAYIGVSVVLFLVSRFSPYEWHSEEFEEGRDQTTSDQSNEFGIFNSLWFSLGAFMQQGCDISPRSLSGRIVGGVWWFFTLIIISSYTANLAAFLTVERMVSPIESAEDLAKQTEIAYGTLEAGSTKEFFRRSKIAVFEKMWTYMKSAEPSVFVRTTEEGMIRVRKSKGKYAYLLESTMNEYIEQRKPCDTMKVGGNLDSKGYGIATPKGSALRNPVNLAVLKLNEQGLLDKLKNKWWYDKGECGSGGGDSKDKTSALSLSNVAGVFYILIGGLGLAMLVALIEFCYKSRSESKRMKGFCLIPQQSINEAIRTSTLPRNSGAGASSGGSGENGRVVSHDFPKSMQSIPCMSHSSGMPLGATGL

## O=C1CCCN1 [2-pyrrolidinone]
[1]; in vitro, Nishizaki et al. 2002
  currents of GluA2-lacking AMPA receptors (CPAR currents): specifically increase CPAR currents; also recorded: specifically increase the currents of GluA2-lacking AMPA receptors
[2]; [9]
  sucrose preference (depression-like behavior): increased sucrose; also recorded: return of sucrose preference to near control (painless) levels
[3]; SNI-treated rats
  sensory hypersensitivity: did not have any effect; also recorded: unaltered

## O=C(c1ccc2c(c1)OCCO2)N1CCCCC1 [CX546]
[4]
  immobility on the forced swim test: significantly decreases immobility; also recorded: improves performance on the forced swim test
[5]; [10]
  cold allodynia: relieves cold allodynia
[3]; 2.5 mg/kg, SNI rats, vs DMSO
  analgesic effect: does not produce any statistically significant analgesic effect
[3]; 5 mg/kg intraperitoneal, SNI rats, vs DMSO
  mechanical allodynia: successfully relieves mechanical allodynia; also recorded: relieve mechanical allodynia
[3]; [10]
  mechanical allodynia: successfully relieves mechanical allodynia; also recorded: relieve mechanical allodynia

## CC(C)S(=O)(=O)NC[C@H](C)c1ccc(-c2ccc(C#N)cc2)cc1 [LY451646]
[1]
  potentiation of CPARs and calcium impermeable AMPA receptors: potentiate both CPARs and calcium impermeable AMPA receptors
[6]
  antidepressant effects: antidepressant effects

## NCCCNCCCCNCCCNC(=O)Cc1cccc2ccccc12 [NASPM, 1-naphthyl acetyl spermine]
[2]; [9]
  sucrose preference (depression-like behavior): decrease in sucrose preference; also recorded: enhance depression-like behavior; also recorded: significant further decline in their already reduced sucrose preference; also recorded: reduces sucrose preference
[2]; based on preliminary data, used for power analysis, STD 0.15
  average difference in sucrose preference between NASPM and saline treatment: 0.2
[2]; injected into NAc core, sham-treated rats
  sucrose preference (depression-like behavior): did not show this depression-like behavioral response
[5]; [11]
  cold hypersensitivity: did not alter
[3]; SNI-treated rats
  sensory hypersensitivity: does not alter
[3]; [11]
  mechanical hypersensitivity: does not change mechanical hypersensitivity; also recorded: did not alter; also recorded: no effects on mechanical hypersensitivity

## NC(=O)COc1c(F)cc(SCCNS(=O)(=O)c2ccccc2)cc1F [PEPA, 4-[2-(phenylsulfonylamino)ethylthio]-2,6-difluorophenoxyacetamide]
[1]
  potentiation of CPARs and calcium impermeable AMPA receptors: potentiate both CPARs and calcium impermeable AMPA receptors
[6]
  antidepressant effects: antidepressant effects

## CNC1(c2ccccc2Cl)CCCCC1=O (stereo not shown) [ketamine]
[6]
  antidepressant effect on pain-induced depression: antidepressant properties in the SNI model
[6]; listed as Ketamine
  antidepressant effect on pain-induced depression: effectively treat pain-induced depression
[7]
  GluA1 levels: increase GluA1 levels
[8]
  sensory pain relief: without exerting long lasting sensory pain relief
